Experimental data published in patent publication US12565511B2, “SOS1 inhibitor containing phosphorus” (Chia Tai Tianqing Pharmaceutical Group Co., Ltd., priority 2020, dated 2026).

Assays:
[1] = test system: H358 human non-small cell lung cancer cells; experiment: Inhibition test of in vitro cell level phosphorylation activity (pERK); format: cell-based; conditions: NCI-H358, ERK phosphorylation inhibition, compound 1 h
Description: Test Example 1 Inhibition Test of In Vitro Cell Level Phosphorylation Activity
1.2 Test Method for In Vitro Cell Level Phosphorylation Activity
A dish of H358 human non-small cell lung cancer cells (Nanjing Cobioer Biosciences Co., Ltd.) in logarithmic growth phase and good cell condition were added to a centrifuge tube and centrifuged at 1000 rpm for 5 min in a low speed benchtop centrifuge. The supernatant was discarded, and 5 mL of a plating medium containing 5% FBS was added using a pipette for cell resuspension. The cell suspension was loaded on a cell counter for counting, and diluted with the plating medium to adjust the cell density to 1.5×10^5 cells/mL. The cells were seeded on a black clear-bottom 384-well plate at 40 μL/well using a multi-channel pipette, and cultured overnight in a cell incubator at 37° C., 5% CO2 and saturated humidity. […] The medium was discarded after 1 h, 40 μL, of 4% polyoxymethylene was added to each well, and the plate was incubated for 20 min at room temperature and washed with PBS. […] 20 μL of 5% BSA blocking buffer was added to each well, and the blocking buffer was discarded after the plate was blocked for 1 h at room temperature. 20 μL of the primary antibody mixed solution was added to each well, wherein Rabbit anti-pERK was diluted at 1:1000 (final concentration) and mouse anti-GAPDH was diluted at 1:5000 (final concentration), and the plate was incubated overnight at 4° C. and washed with PBST. 20 μL of the secondary antibody mixed solution was added to each well, wherein goat anti rabbit 800 and goat anti mouse 647 were both diluted at 1:1000 (final concentration), and the plate was incubated in the dark at room temperature for 45 min and washed with PBST.

[2] = target: T1, KRAS-G12C/SOS1 (Homo sapiens, UniProt Q07889); experiment: biochemical
T1 sequence (Q07889 564-1049): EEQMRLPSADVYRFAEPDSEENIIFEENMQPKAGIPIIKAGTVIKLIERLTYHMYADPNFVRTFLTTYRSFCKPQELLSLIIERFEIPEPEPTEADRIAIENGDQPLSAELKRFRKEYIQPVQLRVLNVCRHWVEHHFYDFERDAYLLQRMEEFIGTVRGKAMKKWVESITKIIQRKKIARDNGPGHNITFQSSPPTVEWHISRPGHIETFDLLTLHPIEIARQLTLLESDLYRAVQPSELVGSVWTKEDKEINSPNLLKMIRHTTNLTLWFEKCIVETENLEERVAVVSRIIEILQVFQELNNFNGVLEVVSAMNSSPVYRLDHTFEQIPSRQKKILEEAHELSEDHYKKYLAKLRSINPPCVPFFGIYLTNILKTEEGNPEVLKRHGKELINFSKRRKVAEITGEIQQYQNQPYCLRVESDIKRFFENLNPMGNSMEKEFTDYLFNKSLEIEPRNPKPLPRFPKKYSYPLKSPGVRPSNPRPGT

[3] = test system: K562 cells; experiment: Assay for proliferation inhibitory activity of K562 cells; format: cell-based; conditions: Homo sapiens, 72 h, CCK-8, read-out: K562 cell proliferation inhibition IC50
Description: Test Example 4 Assay for Proliferation Inhibitory Activity of K562 Cells
The K562 cell line can be purchased from the American Type Culture Collection (ATCC).
The K562 cells in a good growth state were added to a centrifuge tube with the cell density adjusted to 3×10^4/mL, and seeded on a 96-well plate (100 μL/well). The cells were cultured overnight in a cell incubator, the compound was loaded using a nanoliter pipettor to allow the final compound concentration to be 10000 nM to 4.6 nM, 2 replicate wells were set and control was set.

[4] = target: T2, SOS1cat / KRAS G12C (Homo sapiens, UniProt Q07889); experiment: Guanine nucleotide exchange test (HTRF); format: biochemical; conditions: SOS1cat-mediated loading of EDA-GTP-DY-647P1 on His-KRAS G12C, 20° C.; read-out: Nucleotide conversion of HTRF IC50
T2 sequence (Q07889 564-1049): T1 sequence (Q07889 564-1049)
Description: Test Example 2 Guanine Nucleotide Exchange Test
This test quantitatively investigates the ability of SOS to mediate KRAS activation. KRAS G12C with a His tag was added to the system, anti-His antibody labeled with lanthanide Eu was combined with the system, then auxiliary protein SOS1cat and GTP analogue EDA-GTP-DY-647P1 with fluorophore were added thereto, the GTP analogue with fluorophore was loaded on KRAS G12C with the assistance of the auxiliary protein, and then energy resonance transfer occurred between Anti-6HS-Cryptate (FRET donor) and EDA-GTP-DY-647P1 (FRET acceptor).
However, after pretreatment with SOS1 inhibitor compounds, the ability of SOS1 to bind and mediate KRAS activation was weakened, and the ability of FRET between donor and acceptor was weakened.
Test buffer was prepared with the following components: HEPES pH 7.4: 20 mM; NaCl: 150 mM; MgCl2: 0.5 mM; DTT: 2 mM; BSA: 0.05%; and Igepal: 0.0025%.
KRAS G12C working solution, SOS1cat working solution and blank control solution were prepared with the test buffers; wherein the KRAS G12C working solution contained 100 nM His-KRAS G12C and 2 nM […]; the SOS1cat working solution contained 20 nM SOS1cat and 200 nM EDA-GTP-DY-647P1; and the blank control solution contained 100 nM EDA-GTP-DY-647P1.
The whole test procedures were completed at 20° C.

| SMILES | EC50 [1] [nM] | IC50 [2] [nM] | IC50 [3] [nM] | IC50 [4] [nM] |
| --- | --- | --- | --- | --- |
| COc1cc2nc(C)nc(N[C@H](C)c3cccc(C(F)F)c3C)c2cc1P1(=O)CCN(C(=O)C2CC2)CC1 [Example 14] | 108 | – | – | – |
| Cc1nc(N[C@H](C)c2cccc(C(F)F)c2F)c2cc(P3(=O)CCN(S(=O)(=O)C4CC4)CC3)ncc2n1 [Example 21] | – | 58 | 187 | 481 |
| Cc1nc(N[C@H](C)c2cccc(C(F)F)c2F)c2cc(P3(=O)CCN(S(C)(=O)=O)CC3)ncc2n1 [Example 20] | – | 78 | 292 | 482 |
| COc1cc2nc(C)nc(N[C@H](C)c3cc(N)cc(C(F)F)c3)c2cc1P1(=O)CCCCC1 [Example 65] | – | 56 | 433 | 482 |
| Cc1nc(N[C@H](C)c2cccc(C(F)F)c2F)c2cc(P3(=O)CCN(S(C)(=O)=O)CC3)ccc2n1 [Example 27] | – | 61 | 469 | 542 |
| COc1cc2nc(C)nc(N[C@H](C)c3cc(N)cc(C(F)(F)F)c3C)c2cc1P1(=O)CCN(C(C)=O)CC1 [Example 18] | 71 | – | – | – |
| COc1cc2nc(C)nc(N[C@H](C)c3cccc(C(C)(F)F)c3F)c2cc1P1(=O)CCN(C(=O)C2CC2)CC1 [Example 17] | 82 | – | – | – |
| COc1cc2nc(C)nc(N[C@H](C)c3cccc(C(F)F)c3C)c2cc1P1(=O)CCN(C(C)=O)CC1 [Example 12] | 103 | – | – | – |
| Cc1nc(N[C@H](C)c2cccc(C(F)(F)F)c2F)c2cc(P3(=O)CCCC3)ncc2n1 [Example 43] | – | 215 | 1070 | 717 |
| COc1cc2nc(C)nc(N[C@H](C)c3cccc(C(C)(F)F)c3F)c2cc1P1(=O)CCN(C(C)=O)CC1 [Example 15] | 148 | – | – | – |
| Cc1nc(N[C@H](C)c2cccc(C(F)(F)F)c2F)c2cc(P3(=O)CCCCC3)ncc2n1 [Example 42] | – | 81 | 562 | 572 |
